ChEMBL document CHEMBL1201862, “PubChem BioAssay data set” (2004)
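Cells were grown in 96-well plates and exposed to each compound for 48 hours at five concentrations; endpoints were interpolated linearly between bracketing concentrations, or set to the highest concentration if not reached. GI50 = concentration required for 50% inhibition of growth.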 Calls of active or inactive are those of the source. Rule as the data show it: active = GI50 up to about 1.1 µM and inactive = higher.

Columns and labels:
Test in all cases: NCI tumour cell line growth inhibition, 48 h
ACHN = tested on: ACHN
NCI-H226 = tested on: NCI-H226
HCT-116 = tested on: HCT-116
RXF 393 = tested on: RXF 393
U-251 = tested on: U-251
MDA-MB-435 = tested on: MDA-MB-435
K562 = tested on: K562
UO-31 = tested on: UO-31
NCI-H460 = tested on: NCI-H460
SNB-75 = tested on: SNB-75
COLO 205 = tested on: COLO 205
SF-268 = tested on: SF-268
MCF7 = tested on: MCF7
SW-620 = tested on: SW-620
HCT-15 = tested on: HCT-15
Malme-3M = tested on: Malme-3M
SR = tested on: SR
786-0 = tested on: 786-0
SK-MEL-28 = tested on: SK-MEL-28
MOLT-4 = tested on: MOLT-4
TK-10 = tested on: TK-10
NCI-H23 = tested on: NCI-H23
OVCAR-4 = tested on: OVCAR-4
MDA-N = tested on: MDA-N
OVCAR-3 = tested on: OVCAR-3
IGROV-1 = tested on: IGROV-1
HOP-92 = tested on: HOP-92
SF-539 = tested on: SF-539
MDA-MB-231 = tested on: MDA-MB-231
UACC-257 = tested on: UACC-257
HT-29 = tested on: HT-29
SK-OV-3 = tested on: SK-OV-3
OVCAR-8 = tested on: OVCAR-8
Hs-578T = tested on: Hs-578T
NCI/ADR-RES = tested on: NCI/ADR-RES
SK-MEL-2 = tested on: SK-MEL-2
EKVX = tested on: EKVX
DU-145 = tested on: DU-145
SF-295 = tested on: SF-295
T47D = tested on: T47D
UACC-62 = tested on: UACC-62
BT-549 = tested on: BT-549
NCI-H522 = tested on: NCI-H522
HOP-62 = tested on: HOP-62
PC-3 = tested on: PC-3
SNB-19 = tested on: SNB-19
SK-MEL-5 = tested on: SK-MEL-5
M14 = tested on: M14
A549 = tested on: A549
LOX IMVI = tested on: LOX IMVI
A498 = tested on: A498
KM12 = tested on: KM12
HCC 2998 = tested on: HCC 2998
SN12C = tested on: SN12C
OVCAR-5 = tested on: OVCAR-5
RPMI-8226 = tested on: RPMI-8226
CAKI-1 = tested on: CAKI-1
CCRF-CEM = tested on: CCRF-CEM

SMILES: Nc1ncnc2c1ncn2CCCCC(=O)O
- GI50 (ACHN): > 100 µM (inactive)
- GI50 (NCI-H226): > 100 µM (inactive)
- GI50 (HCT-116): > 100 µM (inactive)
- GI50 (RXF 393): > 100 µM (inactive)
- GI50 (U-251): > 100 µM (inactive)
- GI50 (MDA-MB-435): > 100 µM (inactive)
- GI50 (K562): > 100 µM (inactive)
- GI50 (UO-31): > 100 µM (inactive)
- GI50 (NCI-H460): > 100 µM (inactive)
- GI50 (SNB-75): > 100 µM (inactive)
- GI50 (COLO 205): > 100 µM (inactive)
- GI50 (SF-268): > 100 µM (inactive)
- GI50 (MCF7): > 100 µM (inactive)
- GI50 (SW-620): > 100 µM (inactive)
- GI50 (HCT-15): > 100 µM
- GI50 (Malme-3M): > 100 µM (inactive)
- GI50 (SR): > 100 µM (inactive)
- GI50 (786-0): > 100 µM (inactive)
- GI50 (SK-MEL-28): > 100 µM (inactive)
- GI50 (MOLT-4): > 100 µM (inactive)
- GI50 (TK-10): > 100 µM (inactive)
- GI50 (NCI-H23): > 100 µM (inactive)
- GI50 (OVCAR-4): > 100 µM (inactive)
- GI50 (MDA-N): > 100 µM (inactive)
- GI50 (OVCAR-3): > 100 µM (inactive)
- GI50 (IGROV-1): > 100 µM (inactive)
- GI50 (HOP-92): > 100 µM (inactive)
- GI50 (SF-539): > 100 µM (inactive)
- GI50 (MDA-MB-231): > 100 µM (inactive)
- GI50 (UACC-257): > 100 µM (inactive)
- GI50 (HT-29): > 100 µM (inactive)
- GI50 (SK-OV-3): > 100 µM (inactive)
- GI50 (OVCAR-8): > 100 µM (inactive)
- GI50 (Hs-578T): > 100 µM (inactive)
- GI50 (NCI/ADR-RES): > 100 µM (inactive)
- GI50 (SK-MEL-2): > 100 µM (inactive)
- GI50 (EKVX): > 100 µM (inactive)
- GI50 (DU-145): > 100 µM (inactive)
- GI50 (SF-295): > 100 µM (inactive)
- GI50 (T47D): > 100 µM (inactive)
- GI50 (UACC-62): > 100 µM (inactive)
- GI50 (BT-549): > 100 µM (inactive)
- GI50 (NCI-H522): > 100 µM (inactive)
- GI50 (HOP-62): > 100 µM (inactive)
- GI50 (PC-3): > 100 µM (inactive)
- GI50 (SNB-19): > 100 µM (inactive)
- GI50 (SK-MEL-5): > 100 µM (inactive)
- GI50 (M14): > 100 µM (inactive)
- GI50 (A549): > 100 µM (inactive)
- GI50 (LOX IMVI): > 100 µM (inactive)
- GI50 (A498): > 100 µM (inactive)
- GI50 (KM12): > 100 µM (inactive)
- GI50 (HCC 2998): > 100 µM (inactive)
- GI50 (SN12C): > 100 µM (inactive)
- GI50 (OVCAR-5): > 100 µM (inactive)
- GI50 (RPMI-8226): > 100 µM (inactive)
- GI50 (CAKI-1): > 100 µM (inactive)

SMILES: C[C@]12CC[C@H]3[C@@H](CCC4=CC(=O)CC[C@@H]43)[C@@H]1CC[C@@H]2OC1(O)C(=O)c2ccccc2C1=O
- GI50 (ACHN): 27.7 µM (inactive)
- GI50 (NCI-H226): > 100 µM (inactive)
- GI50 (HCT-116): 14.5 µM (inactive)
- GI50 (RXF 393): 33.3 µM (inactive)
- GI50 (U-251): 48.8 µM (inactive)
- GI50 (MDA-MB-435): 32.7 µM (inactive)
- GI50 (K562): 35.3 µM (inactive)
- GI50 (UO-31): 26.2 µM (inactive)
- GI50 (NCI-H460): 67 µM (inactive)
- GI50 (CCRF-CEM): 31.4 µM (inactive)
- GI50 (SNB-75): 56.9 µM (inactive)
- GI50 (COLO 205): 24.4 µM (inactive)
- GI50 (SF-268): 34.1 µM (inactive)
- GI50 (MCF7): 30.8 µM (inactive)
- GI50 (SW-620): 40.6 µM (inactive)
- GI50 (HCT-15): 37.8 µM
- GI50 (Malme-3M): 34 µM (inactive)
- GI50 (SR): 35.6 µM (inactive)
- GI50 (786-0): 24.9 µM (inactive)
- GI50 (SK-MEL-28): > 100 µM (inactive)
- GI50 (MOLT-4): 33.3 µM (inactive)
- GI50 (TK-10): 32.5 µM (inactive)
- GI50 (NCI-H23): 27.1 µM (inactive)
- GI50 (OVCAR-4): 91.4 µM (inactive)
- GI50 (MDA-N): 17.6 µM (inactive)
- GI50 (OVCAR-3): 39.4 µM (inactive)
- GI50 (IGROV-1): 69.7 µM (inactive)
- GI50 (HOP-92): > 100 µM (inactive)
- GI50 (SF-539): 32.4 µM (inactive)
- GI50 (MDA-MB-231): 87.3 µM (inactive)
- GI50 (UACC-257): 28.5 µM (inactive)
- GI50 (HT-29): 35.1 µM (inactive)
- GI50 (SK-OV-3): > 100 µM (inactive)
- GI50 (OVCAR-8): 45.2 µM (inactive)
- GI50 (Hs-578T): 11.2 µM (inactive)
- GI50 (NCI/ADR-RES): 63 µM (inactive)
- GI50 (SK-MEL-2): 75.9 µM (inactive)
- GI50 (EKVX): 0.352 µM (active)
- GI50 (DU-145): 16.5 µM (inactive)
- GI50 (SF-295): > 100 µM (inactive)
- GI50 (T47D): 36.7 µM (inactive)
- GI50 (UACC-62): 11.7 µM (inactive)
- GI50 (BT-549): 66.8 µM (inactive)
- GI50 (NCI-H522): 17.3 µM (inactive)
- GI50 (HOP-62): 36.6 µM (inactive)
- GI50 (PC-3): 60.5 µM (inactive)
- GI50 (SNB-19): > 100 µM (inactive)
- GI50 (SK-MEL-5): 19.5 µM (inactive)
- GI50 (M14): 44.6 µM (inactive)
- GI50 (A549): > 100 µM (inactive)
- GI50 (LOX IMVI): 37.5 µM (inactive)
- GI50 (A498): 48.5 µM (inactive)
- GI50 (KM12): > 100 µM (inactive)
- GI50 (HCC 2998): > 100 µM (inactive)
- GI50 (SN12C): 17 µM (inactive)
- GI50 (OVCAR-5): 27.6 µM (inactive)
- GI50 (RPMI-8226): 26.2 µM (inactive)
- GI50 (CAKI-1): 80.2 µM (inactive)
